“Also recorded” adds a separate entry of the source.
Columns and labels:
human BMEC = details: inhibitors of iPLA2 and sPLA2; refs (1-3, 24); cited from earlier work
HBMEC [1] = details: inhibitors of iPLA2 and sPLA2; refs (1-3, 24); cited from earlier work
E. coli K1 strain RS218 [2] = assay: Mouse model of experimental hematogenous E. coli meningitis (5-LO-/- and wild-type 129SvEv mice); format: in vivo
Description: Female 5-LO−/− (129-Alox5^tm1Fun/J) and strain-matched (129SvEv) wild-type mice, 9˜12 week old and 18˜26 gm, were used (23). […] Most animals receiving 1×10^7 CFUs, however, died between one and two hour of intravenous inoculation. Based on these observations, we examined and compared E. coli K1 penetration into the brain at one hour following intravenous administration of 1×10^7 CFUs of strain RS218 in 5-LO−/− and wild type mice.
Mice were anesthetized with pentobarbital sodium given subcutaneously at 50 mg/kg and each mouse received 1×10^7 CFU of E. coli RS218 in 100 μl PBS via the tail vein. One hour later, mouse chest was cut open, and blood from right ventricle was collected and plated for bacterial counts (CFUs). The mouse was, then, perfused with a mammalian Ringer's solution by transcardiac perfusion through a 23-gauge needle inserted into the left ventricle of the heart under the perfusion pressure of about 100 mmHg. The perfusate exited through a cut in the right atrium. The composition of the mammalian Ringer solution was: (in mM) 132 NaCl, 4.6 KCl, 2 CaCl2, 1.2 MgSO4, 5.5 glucose, 5.0 NaHCO3, and 20 HEPES and Na-HEPES, containing 10 mg/ml BSA; pH of the Ringer solution was maintained at 7.40-7.45 by adjustment of the ratio of Na-HEPES to HEPES. […] Bacterial penetration into the brain was also expressed as (brain CFUs per gm/blood CFUs per ml)×100. […]

HBMEC [3] = assay: E. coli K1 binding and invasion assays in human BMEC (HBMEC); format: cell-based; details: strain RS218; HBMEC pretreated 30 mins; compared to vehicle control (DMSO)
Description: E. coli strain RS218 was grown overnight in BHI broth in the presence of streptomycin (50 μg/ml). Bacteria were resuspended in experimental medium [M199-HamF12 (1:1) containing 5% heat-inactivated fetal bovine serum, 2 mM glutamine, and 1 mM pyruvate] and added in a multiplicity of infection (MOI) of 100:1 to HBMEC grown in collagen-coated 24-well plates at 37° C. in 5% CO2 incubator for 90 min for binding assay as described previously (9, 10, 14, 28). HBMEC were washed four times with PBS to remove unbound bacteria, lysed in 0.025% Triton X-100 and plated for determinations of CFUs. The results were calculated as a percent of the initial inoculum and expressed as percent relative binding compared to percent binding of RS218 in the presence of vehicle control (DMSO). Each set was run in triplicates.
The HBMEC invasion assay with gentamicin treatment was performed to determine the number of viable intracellular bacteria recovered from the infected HBMEC, as previously described (9, 10, 14, 28). E. coli K1 strain RS218 was added to HBMEC as described above for binding assay. HBMEC were subsequently washed with RPMI 1640 and incubated with experimental media containing gentamicin (100 μg/ml) for 1 h to kill extracellular bacteria. The cells were washed again with PBS and lysed in 0.025% Triton X-100. The released intracellular bacteria were enumerated by plating on sheep blood agar plates. The results were calculated as a percent of the initial inoculum and expressed as percent relative invasion compared to percent invasion of RS218 in the presence of vehicle control (DMSO). Each set was run in triplicates.
To examine the effects of inhibitors and antagonists on E. coli K1 binding to and invasion of HBMEC, HBMEC were pretreated with inhibitors or antagonists for 30 mins before addition of E. coli, and then processed for binding and invasion assays as described above.
E. coli strain RS218 (O18:K1:H7), a cerebrospinal fluid isolate from a neonate with meningitis, was grown overnight in brain heart infusion (BHI) broth (Difco Laboratories, Detroit, Mich.). Bacteria were resuspended in experimental medium [M199-HamF12 (1:1) containing 5% heat-inactivated fetal bovine serum, 2 mM glutamine, and 1 mM pyruvate] and added in a multiplicity of infection (MOI) of 100:1 to BMECs grown in collagen-coated 24-well plates at 37° C. in 5% CO2 incubator for 90 min for binding assay, as previously described^11. BMECs were washed four times with PBS to remove unbound bacteria, lysed in 0.025% Triton X-100 and plated for determinations of CFUs. The results were calculated as a percent of the initial inoculum and expressed as percent relative binding compared to percent binding of RS218 in the presence of vehicle control (DMSO). Each set was run in triplicates.
The BMEC invasion assay with gentamicin treatment^11 was performed to determine the number of viable intracellular bacteria recovered from the infected BMECs. E. coli K1 strain RS218 was added to BMEC as described above for binding assay. BMECs were subsequently washed with RPMI 1640 and incubated with experimental media containing gentamicin (100 μg/ml) for 1 h to kill extracellular bacteria. The cells were washed again with PBS, lysed in 0.025% Triton X-100, and the released intracellular bacteria were enumerated by plating on sheep blood agar plates. The results were calculated as a percent of the initial inoculum and expressed as percent relative invasion compared to percent invasion of RS218 in the presence of vehicle control (DMSO). Each set was run in triplicates.
E. coli. Human BMEC association and invasion assays were carried out as described previously (15). Briefly, for association assays, confluent human BMEC in 24-well tissue culture plates were incubated with 10^7 CFU of E. coli at a multiplicity of infection of 100 for 90 minutes at 37° C. […]

E. coli K1 strain RS218 [4] = assay: Infant rat model of experimental hematogenous E. coli meningitis; format: in vivo; details: 5-day-old rats, 9 animals; i.p. 50 μg/10 gm one hour before bacteria; p < 0.001 by Fisher's exact test
Description: Experimental hematogenous E. coli meningitis was induced in 5-day old rats as previously described (9, 10, 14, 28). Briefly, outbred, specific-pathogen-free pregnant Sprague-Dawley rats with timed conception were purchased from Charles River Breeding laboratory (Wilmington, Mass.). The rats delivered in our vivarium 5 to 7 days after arrival. At 5 days of age, all members of each litter were randomly divided into two groups, to receive intraperitoneally montelukast (50 μg/10 gm of weight in 50 μl PBS) or vehicle control (3.3% DMSO in 50 μl PBS). One hour later, each animal received 1×10^7 CFU of E. coli K1 strain RS218 via intracardiac injection. At one hour after bacterial injection, blood and CSF specimens were obtained as described previously (9, 10, 14, 28) for quantitative cultures. The development of E. coli meningitis (defined as positive CSF cultures) was compared between the two groups of animals.
We also examined one of the CysLT1 antagonists for its effect on E. coli K1 penetration into the brain in our well-characterized infant rat model of experimental hematogenous E. coli meningitis (9, 10, 14, 28). At 5 days of age, all members of each litter were randomly divided to receive intraperitoneally montelukast or vehicle control. […] At one hour after bacterial inoculation, blood and cerebrospinal fluid (CSF) specimens were obtained for quantitative cultures.

[5] = developed for asthma; cited from earlier work
HBMEC monolayers = assay: Integrity of HBMEC monolayers by TEER before and after transcytosis assays; format: cell-based, human; details: at 50 μM
Description: We also examined the effect of C. neoformans traversal on the HBMEC monolayer integrity, as measured by passive diffusion of ^3H-inulin and TEER at the end of the transcytosis experiment as described previously (7).

CC(=O)O[C@@H]1C[C@@H]2[C@@]3(C)CCCC(C)(C)[C@@H]3CC[C@@]2(C)[C@@H]2CC=C(C=O)[C@H](C=O)[C@@]12C [12-episcalaradial]
GBS invasion of human BMEC (human BMEC): did not exhibit any significant inhibition | E. coli invasion of human BMEC (HBMEC [1]): did not exhibit any significant inhibition

CCCCC/C=C\C\C=C/C=C/C=C/[C@@H](SC[C@H](N)C(=O)NCC(=O)O)[C@@H](O)CCCC(=O)O [LTD4]
E. coli penetration into the brains (E. coli K1 strain RS218 [2]; 5-LO-/- mice, one hour after i.v. E. coli K1 strain RS218): rescued the decreased E. coli penetration into the brains

CN(C)C(=O)CCSC(SCCC(=O)O)c1cccc(/C=C/c2ccc3ccc(Cl)cc3n2)c1 (centres unmarked) [MK571]
E. coli K1 invasion of HBMEC (HBMEC [3]): inhibited E. coli K1 invasion of human BMEC monolayers in a dose-dependent manner; also recorded: effective in inhibiting E. coli invasion of HBMEC in a dose-dependent manner | E. coli K1 penetration into the brain (brain CFU/gm and percent of brain CFU/blood CFU) (E. coli K1 strain RS218 [2]; wild type mice, oral 400 μg/mouse one hour before bacterial injection, one hour after i.v. 1×10^7 CFU): significantly decreased E. coli K1 penetration into the brain in the wild type mice; also recorded: significantly decreased E. coli K1 penetration into the brain of wild type mice

O=C1O/C(=C/Br)CCC1c1cccc2ccccc12 (centres unmarked) [bromoenol lactone]
GBS invasion of human BMEC (human BMEC): did not exhibit any significant inhibition | E. coli invasion of human BMEC (HBMEC [1]): did not exhibit any significant inhibition

CC(C)(O)c1ccccc1CC[C@@H](SCC1(CC(=O)O)CC1)c1cccc(/C=C/c2ccc3ccc(Cl)cc3n2)c1 [montelukast]
% of animals with meningitis (positive CSF cultures) (E. coli K1 strain RS218 [4]): 22% | No. of animals with meningitis (positive CSF cultures) (E. coli K1 strain RS218 [4]): 2 | safety and tolerability in clinical trials [5]: safe and well tolerated | integrity of the HBMEC monolayers (TEER) (HBMEC monolayers): did not affect the integrity of the HBMEC monolayers
